The values below are quoted from earlier work in patent US20070082064A1, “Nutritional or dietary supplement for the treatment of macular degeneration” (priority 2005, published 2007).

Consider vitamin E, for which the risk of death entry (daily dose of 200 IU per day) was “no increased risk of death”. Moreover, the “risk of death higher than among those taking placebos” value (daily doses of 400 IU or more, meta-analysis of 19 trials, more than 136,000 patients) is on record as “about 10%”.
